From ChEMBL document CHEMBL5291721, “A preclinical secondary pharmacology resource illuminates target-adverse drug reaction associations of marketed drugs” (Nat Commun, 2023)

How the values were obtained:
Adenosine receptor A1 = biological target: T1, Adenosine receptor A1 (Homo sapiens, UniProt P30542)
T1 sequence (P30542 whole entry): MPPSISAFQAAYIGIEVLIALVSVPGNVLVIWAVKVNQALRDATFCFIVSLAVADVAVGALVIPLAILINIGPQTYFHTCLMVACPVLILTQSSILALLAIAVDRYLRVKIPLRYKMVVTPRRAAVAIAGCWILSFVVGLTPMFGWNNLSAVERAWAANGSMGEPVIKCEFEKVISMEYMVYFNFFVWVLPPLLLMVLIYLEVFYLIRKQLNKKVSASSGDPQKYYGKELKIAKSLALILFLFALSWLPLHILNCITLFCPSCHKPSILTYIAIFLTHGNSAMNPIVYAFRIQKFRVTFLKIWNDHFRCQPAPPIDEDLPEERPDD

[1] = biological target: T2, Alpha-1A adrenergic receptor (Homo sapiens, UniProt P35348)
T2 sequence (P35348 whole entry): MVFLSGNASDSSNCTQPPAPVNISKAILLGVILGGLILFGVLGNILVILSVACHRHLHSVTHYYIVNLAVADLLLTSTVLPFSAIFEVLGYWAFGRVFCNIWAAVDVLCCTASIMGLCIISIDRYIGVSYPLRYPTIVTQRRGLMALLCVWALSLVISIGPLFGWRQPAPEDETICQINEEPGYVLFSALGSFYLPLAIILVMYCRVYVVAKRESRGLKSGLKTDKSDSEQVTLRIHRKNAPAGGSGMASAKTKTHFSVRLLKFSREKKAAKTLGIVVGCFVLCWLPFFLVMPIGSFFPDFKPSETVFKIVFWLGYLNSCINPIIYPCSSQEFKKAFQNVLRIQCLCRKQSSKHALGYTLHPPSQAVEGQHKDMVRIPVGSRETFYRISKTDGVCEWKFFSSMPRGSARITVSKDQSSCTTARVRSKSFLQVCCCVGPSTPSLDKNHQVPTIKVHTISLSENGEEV

[2] = biological target: Neuronal acetylcholine receptor subunit alpha-4 (Homo sapiens, UniProt P43681)
[3] = biological target: 5-hydroxytryptamine receptor 2A (Homo sapiens, UniProt P28223); type: functional, cell-based
Histamine H3 receptor = Histamine H3 receptor (Homo sapiens, UniProt Q9Y5N1)
[4] = biological target: Muscarinic acetylcholine receptor M3 (Homo sapiens, UniProt P20309)
Progesterone receptor = biological target: T3, Progesterone receptor (Homo sapiens, UniProt P06401); type: functional
T3 sequence (P06401 whole entry): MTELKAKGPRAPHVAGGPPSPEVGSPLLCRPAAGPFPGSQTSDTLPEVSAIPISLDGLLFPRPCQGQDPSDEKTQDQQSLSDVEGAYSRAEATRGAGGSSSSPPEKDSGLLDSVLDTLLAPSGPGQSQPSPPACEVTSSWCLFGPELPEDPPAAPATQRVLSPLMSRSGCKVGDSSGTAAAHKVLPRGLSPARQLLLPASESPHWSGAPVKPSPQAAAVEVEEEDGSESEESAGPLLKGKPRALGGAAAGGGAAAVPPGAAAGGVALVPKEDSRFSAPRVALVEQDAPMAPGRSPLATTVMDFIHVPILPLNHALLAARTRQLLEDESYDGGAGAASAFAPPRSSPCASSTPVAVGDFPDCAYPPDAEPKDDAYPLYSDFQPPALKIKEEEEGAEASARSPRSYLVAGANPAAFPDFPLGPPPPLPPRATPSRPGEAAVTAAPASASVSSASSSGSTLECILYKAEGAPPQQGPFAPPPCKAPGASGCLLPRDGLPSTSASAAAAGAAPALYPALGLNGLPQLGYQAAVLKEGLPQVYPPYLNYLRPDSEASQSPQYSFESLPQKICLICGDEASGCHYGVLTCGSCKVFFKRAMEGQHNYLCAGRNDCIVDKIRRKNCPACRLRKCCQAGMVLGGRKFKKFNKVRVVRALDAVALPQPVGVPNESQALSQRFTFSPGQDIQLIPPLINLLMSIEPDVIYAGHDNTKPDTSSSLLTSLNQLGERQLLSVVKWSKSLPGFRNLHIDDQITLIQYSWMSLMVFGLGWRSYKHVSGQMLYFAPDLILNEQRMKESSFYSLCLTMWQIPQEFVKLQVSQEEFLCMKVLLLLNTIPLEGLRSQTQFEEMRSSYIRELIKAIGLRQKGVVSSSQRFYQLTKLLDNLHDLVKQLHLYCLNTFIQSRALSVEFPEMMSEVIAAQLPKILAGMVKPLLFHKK

Glucagon receptor = Glucagon receptor (Homo sapiens, UniProt P47871)
D(1A) dopamine receptor = D(1A) dopamine receptor (Homo sapiens, UniProt P21728)
[5] = biological target: T4, Neuropeptide Y receptor type 2 (Homo sapiens, UniProt P49146)
T4 sequence (P49146 whole entry): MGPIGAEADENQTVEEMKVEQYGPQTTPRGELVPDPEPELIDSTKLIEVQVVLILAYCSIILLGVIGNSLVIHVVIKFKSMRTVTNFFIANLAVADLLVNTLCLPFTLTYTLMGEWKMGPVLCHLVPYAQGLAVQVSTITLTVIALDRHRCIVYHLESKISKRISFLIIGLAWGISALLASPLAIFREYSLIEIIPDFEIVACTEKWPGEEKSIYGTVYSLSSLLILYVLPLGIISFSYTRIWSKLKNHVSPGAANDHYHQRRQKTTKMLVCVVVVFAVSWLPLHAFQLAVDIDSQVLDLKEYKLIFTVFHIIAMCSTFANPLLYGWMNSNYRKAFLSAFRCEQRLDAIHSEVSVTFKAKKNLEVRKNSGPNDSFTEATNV
Note: assay procedure not described here.

Neuronal acetylcholine receptor subunit alpha-4, sequence (P43681 whole entry): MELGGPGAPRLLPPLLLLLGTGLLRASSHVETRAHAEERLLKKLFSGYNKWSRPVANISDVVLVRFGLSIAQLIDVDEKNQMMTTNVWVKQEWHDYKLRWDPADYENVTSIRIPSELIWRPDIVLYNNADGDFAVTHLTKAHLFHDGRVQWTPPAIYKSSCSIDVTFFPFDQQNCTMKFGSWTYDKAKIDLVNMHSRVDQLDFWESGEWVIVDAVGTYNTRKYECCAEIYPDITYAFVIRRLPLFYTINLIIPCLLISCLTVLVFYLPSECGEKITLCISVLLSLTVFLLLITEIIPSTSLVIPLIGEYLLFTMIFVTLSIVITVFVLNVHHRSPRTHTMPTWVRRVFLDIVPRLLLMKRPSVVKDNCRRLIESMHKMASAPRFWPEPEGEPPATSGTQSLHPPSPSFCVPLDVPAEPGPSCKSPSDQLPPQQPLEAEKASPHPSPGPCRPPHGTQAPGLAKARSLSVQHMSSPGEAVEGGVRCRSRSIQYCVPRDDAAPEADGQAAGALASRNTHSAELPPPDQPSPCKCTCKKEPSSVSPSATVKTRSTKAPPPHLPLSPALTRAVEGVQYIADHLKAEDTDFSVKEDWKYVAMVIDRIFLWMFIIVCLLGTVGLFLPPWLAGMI
Histamine H3 receptor, sequence (Q9Y5N1 whole entry): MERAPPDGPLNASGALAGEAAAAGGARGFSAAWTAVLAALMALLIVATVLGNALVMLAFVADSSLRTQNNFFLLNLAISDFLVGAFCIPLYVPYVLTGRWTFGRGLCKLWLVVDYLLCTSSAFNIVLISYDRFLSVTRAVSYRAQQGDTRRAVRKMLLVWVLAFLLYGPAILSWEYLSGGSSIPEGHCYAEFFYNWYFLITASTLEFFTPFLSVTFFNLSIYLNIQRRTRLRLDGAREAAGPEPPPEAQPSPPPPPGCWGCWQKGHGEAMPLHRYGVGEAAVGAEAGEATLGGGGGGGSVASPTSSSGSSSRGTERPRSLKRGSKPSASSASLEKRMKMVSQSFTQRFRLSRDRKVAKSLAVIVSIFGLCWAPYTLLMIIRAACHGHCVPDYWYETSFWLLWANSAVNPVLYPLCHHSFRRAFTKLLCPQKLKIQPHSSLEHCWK
5-hydroxytryptamine receptor 2A, sequence (P28223 whole entry): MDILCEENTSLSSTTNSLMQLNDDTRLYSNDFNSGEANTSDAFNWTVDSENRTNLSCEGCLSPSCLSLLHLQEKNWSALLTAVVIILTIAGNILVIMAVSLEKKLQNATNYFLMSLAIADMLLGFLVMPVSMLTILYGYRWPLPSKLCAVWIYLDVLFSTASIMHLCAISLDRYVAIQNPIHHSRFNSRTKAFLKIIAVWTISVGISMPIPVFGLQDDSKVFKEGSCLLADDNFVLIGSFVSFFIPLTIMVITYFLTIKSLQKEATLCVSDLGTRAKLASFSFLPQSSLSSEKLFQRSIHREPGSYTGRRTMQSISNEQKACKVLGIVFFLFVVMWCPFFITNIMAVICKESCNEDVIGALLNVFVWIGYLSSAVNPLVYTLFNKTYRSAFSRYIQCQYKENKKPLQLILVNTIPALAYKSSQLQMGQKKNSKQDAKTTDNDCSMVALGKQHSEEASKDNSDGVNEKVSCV
Glucagon receptor, sequence (P47871 whole entry): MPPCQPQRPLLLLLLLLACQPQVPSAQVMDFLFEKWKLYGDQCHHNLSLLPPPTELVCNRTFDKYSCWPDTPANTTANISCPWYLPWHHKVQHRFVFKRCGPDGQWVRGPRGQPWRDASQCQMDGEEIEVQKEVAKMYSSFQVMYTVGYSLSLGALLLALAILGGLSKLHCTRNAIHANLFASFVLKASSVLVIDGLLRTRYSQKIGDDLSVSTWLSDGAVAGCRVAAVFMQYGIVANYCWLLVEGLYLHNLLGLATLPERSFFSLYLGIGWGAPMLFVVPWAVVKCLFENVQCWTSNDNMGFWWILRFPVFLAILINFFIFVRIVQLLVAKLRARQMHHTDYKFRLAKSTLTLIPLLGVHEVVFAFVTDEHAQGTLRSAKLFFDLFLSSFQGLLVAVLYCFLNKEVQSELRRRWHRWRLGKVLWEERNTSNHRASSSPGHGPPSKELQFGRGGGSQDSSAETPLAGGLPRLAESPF
Muscarinic acetylcholine receptor M3, sequence (P20309 whole entry): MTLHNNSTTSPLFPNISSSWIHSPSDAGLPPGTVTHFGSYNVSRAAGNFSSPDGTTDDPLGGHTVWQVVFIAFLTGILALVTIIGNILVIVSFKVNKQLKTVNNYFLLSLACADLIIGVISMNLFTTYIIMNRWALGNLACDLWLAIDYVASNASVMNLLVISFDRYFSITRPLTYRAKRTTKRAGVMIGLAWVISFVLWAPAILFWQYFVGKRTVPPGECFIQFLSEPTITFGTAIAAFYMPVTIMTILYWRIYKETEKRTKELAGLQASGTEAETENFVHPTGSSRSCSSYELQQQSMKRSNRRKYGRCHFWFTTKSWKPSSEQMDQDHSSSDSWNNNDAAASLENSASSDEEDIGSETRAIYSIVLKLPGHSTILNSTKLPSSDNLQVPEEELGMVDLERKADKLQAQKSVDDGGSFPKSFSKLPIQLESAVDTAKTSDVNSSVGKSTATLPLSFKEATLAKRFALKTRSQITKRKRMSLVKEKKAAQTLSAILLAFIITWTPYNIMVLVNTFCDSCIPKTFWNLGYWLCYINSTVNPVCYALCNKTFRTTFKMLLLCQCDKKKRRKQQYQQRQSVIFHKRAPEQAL
D(1A) dopamine receptor, sequence (P21728 whole entry): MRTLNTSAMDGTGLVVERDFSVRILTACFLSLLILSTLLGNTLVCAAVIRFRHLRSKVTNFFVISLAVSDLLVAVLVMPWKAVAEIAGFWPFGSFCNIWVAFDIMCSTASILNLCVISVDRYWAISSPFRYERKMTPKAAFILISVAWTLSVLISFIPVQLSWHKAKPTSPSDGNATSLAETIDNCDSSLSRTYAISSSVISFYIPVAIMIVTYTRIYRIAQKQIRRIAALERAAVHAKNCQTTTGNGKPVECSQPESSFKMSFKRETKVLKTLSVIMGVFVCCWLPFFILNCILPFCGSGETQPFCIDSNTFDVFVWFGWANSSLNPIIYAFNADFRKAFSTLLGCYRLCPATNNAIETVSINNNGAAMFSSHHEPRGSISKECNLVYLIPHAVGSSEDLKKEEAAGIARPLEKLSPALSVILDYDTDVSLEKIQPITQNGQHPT

Row | Structure (SMILES) | AC50 (Adenosine receptor A1) [µM] | AC50 [1] [µM] | AC50 [2] [µM] | AC50 [3] [µM] | AC50 (Histamine H3 receptor) [µM] | AC50 [4] [µM] | AC50 (Progesterone receptor) [µM] | AC50 (Glucagon receptor) [µM] | AC50 (D(1A) dopamine receptor) [µM] | AC50 [5] [µM]
1 | CC(C)=CCC1C(=O)N(c2ccccc2)N(c2ccccc2)C1=O [FEPRAZONE] | > 30 | > 30 |  |  |  |  |  |  |  | 
2 | CC(C(O)c1ccc(O)cc1)N1CCC(Cc2ccccc2)CC1 (stereo not given) [IFENPRODIL] |  |  | > 30 | > 30 | > 30 | > 30 |  |  |  | 
3 | CS(=O)(=O)Nc1cc2occ(NC=O)c(=O)c2cc1Oc1ccccc1 [IGURATIMOD] |  |  |  |  |  |  | > 30 |  |  | 
4 | CC(=O)N(CC(O)CO)c1c(I)c(C(=O)NCC(O)CO)c(I)c(C(=O)NCC(O)CO)c1I (stereo not given) [IOHEXOL] |  |  | > 10 | > 30 | > 10 | > 30 |  |  |  | 
5 | CN(CCCN1c2ccccc2CCc2ccccc21)CC(=O)c1ccc(Cl)cc1 [LOFEPRAMINE] |  |  | > 30 | > 30 | > 30 |  |  |  |  | 
6 | CCOC(=O)CC(SP(=S)(OC)OC)C(=O)OCC (stereo not given) [MALATHION] | 11.5 |  |  |  |  |  |  |  |  | 
7 | CC(=O)O[C@]1(C(C)=O)CC[C@H]2[C@@H]3C[C@H](C)C4=CC(=O)CC[C@]4(C)[C@H]3CC[C@@]21C [MEDROXYPROGESTERONE ACETATE] | > 30 |  | > 30 |  | > 30 |  |  |  |  | 
8 | Cn1cc[nH]c1=S [METHIMAZOLE] | > 30 | > 30 |  |  |  |  |  |  |  | 
9 | CN(C/C=C/c1ccccc1)Cc1cccc2ccccc12 [NAFTIFINE] |  |  | > 10 |  | > 10 | > 30 | > 30 |  |  | 
10 | NC(=O)c1cccc2cn(-c3ccc([C@@H]4CCCNC4)cc3)nc12 [NIRAPARIB] | > 30 | 29.4 |  |  |  |  |  |  |  | 
11 | CC(C)NCC1CCc2cc(CO)c([N+](=O)[O-])cc2N1 (stereo not given) [OXAMNIQUINE] |  |  | > 10 | > 30 | > 10 | > 30 | > 10 |  |  | 
12 | CN(C)CCCN1c2ccccc2Sc2ccccc21 [PROMAZINE] |  |  |  |  | > 10 |  |  | > 30 | 1.08 | > 30
13 | O=C(O)CCn1c2c(c3ccccc31)C[C@H](NS(=O)(=O)c1ccc(F)cc1)CC2 [RAMATROBAN] | > 30 |  | > 30 | > 10 | > 30 | > 30 | > 30 | > 10 | 6.01 | > 10
14 | O=P(O)(O)C(O)(Cc1cccnc1)P(=O)(O)O [RISEDRONIC ACID] |  |  | > 30 |  | > 30 |  | > 30 | > 30 | > 10 | > 30
15 | O=C1CCC(N2C(=O)c3ccccc3C2=O)C(=O)N1 (stereo not given) [THALIDOMIDE] |  |  |  |  | > 10 |  |  | > 30 | > 10 | > 30
16 | COc1cc(NCc2ccc3nc(N)nc(N)c3c2C)cc(OC)c1OC [TRIMETREXATE] | > 30 |  |  |  |  |  |  |  |  | 
17 | CC(=O)N[C@H]1[C@H]([C@H](O)[C@H](O)CO)OC(C(=O)O)=C[C@@H]1N=C(N)N [ZANAMIVIR] |  |  | > 30 | > 30 | > 30 | > 30 | > 30 |  |  | 
